Assay results reported in patent US10195179B2, “Spiro-lactam NMDA receptor modulators and uses thereof” (Aptinyx Inc., priority 2016, dated 2019).
Read-outs that look alike come from different tables or passages of the source.

Columns and labels:
[1] = Microsomal stability, rat; assay type: in vitro ADME; conditions: rat microsomes
Protocol: Microsomal stability for Compound AA and Compound BB was investigated. The following table indicates the percent of Compound AA and Compound BB remaining after 60 minutes.

[2] = Plasma protein binding assay, rat; assay type: in vitro ADME; conditions: read-out: Plasma Protein binding (% Bound) Plasma rat (converted)
Protocol: Bound drug concentration in the brain was also investigated, and plasma protein binding assays were conducted. The following table (% bound) indicates results for Compound AA and Compound BB.

[3] = Bioavailability and CSF/brain/plasma exposure after PO administration; assay type: in vivo, Sprague Dawley rats; conditions: rat; for Kp: male, Sprague Dawley, 10 mg/kg PO
Protocol: The bioavailablity of Compound BB was investigated following PO administration. CSF, brain and plasma samples were analyzed following dosing with compound BB (10 mg/kg). The following table indicates the bioavailablity and CSF/plasma and brain/plasma ratios.
Sprague Dawley rats were dosed intravenously with 2 mg/kg of Compound AA. A second group of Sprague Dawley rats was dosed per os with 10 mg/kg of compound AA. Plasma samples were drawn over a 24 h period and analyzed for Compound AA. FIG. 3A presents the mean plasma concentration-time profile of Compound AA following the single intraveneous (2 mg/kg) and oral (10 mg/kg) dose administration in male Sprague Dawley rats over the 24 hour period.
In another experiment. Sprague Dawley rats were dosed intravenously with 2 mg/kg of Compound BB. A second group of Sprague Dawley rats was dosed per os with 10 mg/kg of compound BB. Plasma samples were drawn over a 24 h period and analyzed for Compound BB. FIG. 3B presents the mean plasma concentration-time profile of Compound BB following the single intraveneous (2 mg/kg) and oral (10 mg/kg) dose administration in male Sprague Dawley rats over the 24 hour period.
In another experiment, Sprague Dawley rats were dosed per os with 10 mg/kg of Compound BB. Plasma, brain, and CSF samples were analyzed at various time points over a 24 hour period.

NR2D = NR2D (Homo sapiens, UniProt O15399); experiment: Potentiation of [3H]MK-801 binding, wild-type NMDAR2D; design: species or system rat
Protocol: Assays were conducted as described by Moskal et al., “GLYX-13: a monoclonal antibody-derived peptide that acts as an N-methyl-D-aspartate receptor modulator,” Neuropharmacology, 49, 1077-87, 2005. The potentiation of [^3H]MK-801 binding (5 nM; 22.5 Ci/mmol) to well washed rat cortical membranes (200 μg) was measured under non-equilibrium conditions (15 min @ 25° C.) in the presence of increasing concentrations of Compound AA or Compound BB.
FIG. 2A depicts the potentiation of [^3H]MK-801 binding for wild-type NMDAR2 subtypes in the presence of Compound AA. FIG. 2B depicts the potentiation of [^3H]MK-801 binding for wild-type NMDAR2 subtypes in the presence of Compound BB. The following table depicts the results (P means potency and A means activity): […]

rat = experiment: Positive emotional learning (PEL) test, 50-kHz USVs; assay type: in vivo; conditions: administered one hour prior to PEL testing
Protocol: Experiments were conducted as described in Burgdorf et al., “The effect of selective breeding for differential rates of 50-kHz ultrasonic vocalizations on emotional behavior in rats,” Devel. Psychobiol., 51:34-46 (2009).
The PEL assay measures the acquisition of positive (hedonic) 50-kHz ultrasonic vocalizations (USVs) to a social stimulus, heterospecific rough and tumble play stimulation. Heterospecific rough-and-tumble play stimulation was administered by the experimenter's right hand. Animals received 3 min of heterospecific rough-and-tumble play that consisted of alternating 15 sec blocks of heterospecific play and 15 sec of no-stimulation. High frequency ultrasonic vocalizations (USVs) were recorded and analyzed by sonogram with Avasoft SASlab Pro (Germany) as previously described by Burgdorf et al., “Positive emotional learning is regulated in the medial prefrontal cortex by GluN2B-containing NMDA receptors,” Neuroscience, 192:515-523 (2011). Frequency modulated 50-kHz USVs that occurred during each of the no-stimulation periods were quantified to measure PEL. Animals were not habituated to play stimulation before testing. Positive emotional learning was measured during the conditioned stimulus (CS) trials preceding the tickle unconditioned stimulus (UCS) trials. […] Running speed for animals to self administer tickling at the end of the 3 min session was also measured.

SD rats = experiment: Novelty-induced hypophagia (NIH) test; assay type: in vivo, rat; conditions: 1-100 μg/kg PO, 1 h before test
Text: This Example relates to the assessment of the anxiolytic effect of treatment in the stress-induced anxiety model, novelty induced hypophagia. This assay is also sensitive to the rapid acting antidepressants ketamine and GLYX-13 (Li et al., “mTOR-dependent synapse formation underlies the rapid antidepressant effects of NMDA antagonists,” Science 329:959-964, 2010; and Burgdorf et al., 2013). See also Bodnoff et al., “A comparison of the effects of diazepam versus several typical and atypical anti-depressant drugs in an animal model of anxiety,” Psychopharmacology, 97:277-279, 1989.
Testing was conducted as described by (Burgdorf et al., 2013). […] Animals were food deprived overnight before testing, and lab chow was placed in the center chamber of an open field (40×40×20 cm) for 10 min under dim red lighting. Between testing each animal, feces and urine were removed from the apparatus. After NIH testing, the latency to eat in the animal's home cage was determined as a control to ensure the effect on eating is specific to the novel environment. Animals were videotaped, and latency (sec) for the animal to take the first bite of food was manually scored offline.
A single point per dose group that was 2 or more standard deviations from the mean was considered an outlier and was excluded from the data analysis. […]

Sequence of NR2D (O15399 28-1336, species assumed, other chains not shown): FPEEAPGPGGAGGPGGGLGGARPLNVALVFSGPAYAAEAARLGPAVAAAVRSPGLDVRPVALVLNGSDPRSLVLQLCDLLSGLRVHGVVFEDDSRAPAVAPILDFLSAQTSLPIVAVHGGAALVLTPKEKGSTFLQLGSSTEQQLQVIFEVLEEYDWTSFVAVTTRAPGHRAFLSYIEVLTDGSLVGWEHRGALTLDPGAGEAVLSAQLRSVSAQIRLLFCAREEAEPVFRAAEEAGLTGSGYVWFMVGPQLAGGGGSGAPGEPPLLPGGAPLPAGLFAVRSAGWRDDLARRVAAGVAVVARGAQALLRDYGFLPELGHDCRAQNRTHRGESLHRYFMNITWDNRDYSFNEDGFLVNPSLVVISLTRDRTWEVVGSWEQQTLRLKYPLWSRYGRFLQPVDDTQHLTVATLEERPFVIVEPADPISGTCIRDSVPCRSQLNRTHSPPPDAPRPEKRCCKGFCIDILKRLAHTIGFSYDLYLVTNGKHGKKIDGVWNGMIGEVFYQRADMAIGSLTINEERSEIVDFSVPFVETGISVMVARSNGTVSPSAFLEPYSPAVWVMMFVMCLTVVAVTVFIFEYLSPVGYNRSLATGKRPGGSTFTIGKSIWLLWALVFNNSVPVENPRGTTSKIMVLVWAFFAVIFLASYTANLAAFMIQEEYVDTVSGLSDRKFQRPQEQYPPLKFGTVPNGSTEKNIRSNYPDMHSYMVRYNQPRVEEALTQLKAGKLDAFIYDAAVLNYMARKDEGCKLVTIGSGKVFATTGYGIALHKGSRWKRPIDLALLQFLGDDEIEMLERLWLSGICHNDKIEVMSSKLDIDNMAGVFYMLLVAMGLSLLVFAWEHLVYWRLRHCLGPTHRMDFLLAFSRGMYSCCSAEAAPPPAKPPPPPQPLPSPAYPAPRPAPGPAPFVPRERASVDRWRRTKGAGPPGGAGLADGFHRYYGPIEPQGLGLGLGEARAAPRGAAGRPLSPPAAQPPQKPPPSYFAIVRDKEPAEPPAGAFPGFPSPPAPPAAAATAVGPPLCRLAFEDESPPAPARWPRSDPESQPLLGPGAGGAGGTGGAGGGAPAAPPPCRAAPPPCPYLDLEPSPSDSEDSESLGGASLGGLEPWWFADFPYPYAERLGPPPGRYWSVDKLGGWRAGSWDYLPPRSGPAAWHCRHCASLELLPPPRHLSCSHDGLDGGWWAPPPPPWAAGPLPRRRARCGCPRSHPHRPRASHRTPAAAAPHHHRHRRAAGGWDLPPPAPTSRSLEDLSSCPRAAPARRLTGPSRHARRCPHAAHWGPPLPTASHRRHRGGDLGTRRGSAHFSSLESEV

Microsomal Stability (% remaining at 60 min) Rat [1]: 96% | fraction unbound [2]: 0.65 | Kp ([3]; CSF, read-out: CSF/plasma ratio): 0.48 | Kp ([3]; brain, read-out: Brain/plasma ratio): 0.12 | bioavailability ([3]; plasma, PO administration (10 mg/kg PO, 2 mg/kg IV), male Sprague Dawley rats, read-out: Bioavailablity (% F)): 82% | NR2D A (%) (activity) (NR2D; potentiation of [3H]MK-801 binding): 57.41% | EC50 (NR2D; potentiation of [3H]MK-801 binding, 0 = no activity, read-out: NR2D P (M) (potency) (converted)): 5.62e-11 M | NMDAR2D BINDING PROFILE % 1 mM Glycine (NR2D; relative to 1 mM glycine): 57.41% | binding to NR2D (in words) (NR2D; statement in description): binds | NMDAR2D BINDING PROFILE Conclusion (NR2D; wild-type NMDAR2D): WT2D agonist | EC50 (NR2D; wild-type NMDAR2D, read-out: NMDAR2D BINDING PROFILE −logEC50 (converted)): 5.62e-11 M
SMILES: C[C@@H](O)[C@@H](C(N)=O)N1C[C@@]2(CCCN2S(C)(=O)=O)C1=O [Compound BB, (2S,3R)-3-hydroxy-2-((S)-5-(methylsulfonyl)-1-oxo-2,5-diazaspiro[3,4]octan-2-yl)butanamide]
positive emotional learning as measured by rat USVs (rat): increases positive emotional learning | latency to eat in the novelty-induced hypophagia (NIH) test (SD rats): produces an anxiolytic effect
